The target in assay [1] is GSK3α (Homo sapiens (Human), UniProt P49840). Put plainly: GSK 3α enzyme inhibition (FRET, Z-LYTE), Method 2. The format is biochemical. How it is done:
(§1) The enzyme inhibitory activities of compounds disclosed herein are determined by FRET using synthetic peptides labelled with both donor and acceptor fluorophores (Z-LYTE, Invitrogen Ltd., Paisley, UK).
The inhibitory activities of compounds of the invention against the GSK 3α enzyme isoform (Invitrogen), are evaluated by determining the level of activation/phosphorylation of the target peptide. The GSK3-α protein (500 ng/mL, 2.5 μL) is mixed with the test compound (2.5 μL at either 4 μg/mL, 0.4 μg/mL, 0.04 μg/mL, or 0.004 μg/mL) for 2 hr at RT. The FRET peptide (8 μM, 2.5 μL), which is a phosphorylation target for GSK3α, and ATP (40 μM, 2.5 μL) are then added to the enzyme/compound mixture and the resulting mixture incubated for 1 hr. Development reagent (protease, 5 μL) is added for 1 hr prior to detection in a fluorescence microplate reader (Varioskan® Flash, ThermoFisher Scientific).
(§2) In all cases, the site-specific protease cleaves non-phosphorylated peptide only and eliminates the FRET signal. Phosphorylation levels of each reaction are calculated using the ratio of coumarin emission (donor) over fluorescein emission (acceptor), for which high ratios indicate high phosphorylation and low ratios indicate low phosphorylation levels.
This method follows the same steps as Method 1 above, but utilises a shorter period of mixing of the test compound (105 minutes instead of 2 hours) with the GSK3-α protein.

For assay [2], the system named is PBMCs. Put plainly: LPS-induced TNFα/IL-8 release in PBMC cells, assay (b). Format: cell-based. The note with it: Homo sapiens, LPS-stimulated PBMCs, read-out: IC50 Values for Inhibition of Cytokine Release, PBMCs IL-8. How it is done: Peripheral blood mononuclear cells (PBMCs) from healthy subjects are separated from whole blood using a density gradient (Lymphoprep, Axis-Shield Healthcare). The PBMCs are seeded in 96 well plates and treated with compounds at the desired concentration for 2 hours before addition of 1 ng/mL LPS (Escherichia Coli 0111:B4 from Sigma Aldrich) for 24 hours under normal tissue culture conditions (37° C., 5% CO2). The supernatant is harvested for determination of IL-8 and TNFα concentrations by sandwich ELISA (Duo-set, R&D systems) and read on the fluorescence microplate reader (Varioskan® Flash, ThermoFisher Scientific).

Assay [3] relates to d-U937 cells. Put plainly: Accumulation of β catenin in d-U937 cells, assay (m). The format is cell-based, human. How it is done:
U937 cells, a human monocytic cell line, are differentiated into macrophage-type cells by incubation with PMA; (100 ng/mL) for between 48 to 72 hr. The cells are then incubated with either final concentrations of test compound or vehicle for 18 hr. The induction of β-catenin by the test compounds is stopped by replacing the media with 4% formaldehyde solution. Endogenous peroxide activity is neutralised by incubating with quenching buffer (100 μL, 0.1% sodium azide, 1% H2O2 in PBS with 0.05% Tween-20) for 20 min. The cells are washed with washing buffer (200 μL; PBS containing 0.05% Tween-20) and incubated with blocking solution (200 μL; 5% milk in PBS) for 1 hr, re-washed with washing buffer (200 μL) and then incubated overnight with anti-β-catenin antibody solution (50 μL) in 1% BSA/PBS (BD, Oxford, UK).
After washing with washing buffer (3×200 μL; PBS containing 0.05% Tween-20), cells are incubated with an HRP-conjugated secondary antibody solution (100 μL) in 1% BSA/PBS (Dako, Cambridge, UK) and the resultant signal is determined colourimetrically (OD: 450 nm with a reference wavelength of 655 nm) using TMB substrate (50 μL; R&D Systems, Abingdon, UK). This reaction is stopped by addition of 1N H2SO4 solution (50 μL). Cells are then washed with washing buffer and 2% crystal violet solution (50 μL) is applied for 30 min. After washing with washing buffer (3×200 μL), 1% SDS (100 μL) is added to each well and the plates are shaken lightly for 1 hr prior to measuring the absorbance at 595 nm (Varioskan® Flash, Thermo-Fisher Scientific).
The measured OD450-655 readings are corrected for cell number by dividing the OD450-655 by the OD595 readings. The percentage induction for each well is calculated relative to vehicle, and the ratio of induction normalised in comparison with the induction produced by a standard control comprising of N-(4-(4-(3-(3-tert-butyl-1-p-tolyl-1H-pyrazol-5-yl)ureido)naphthalen-1-yloxy)pyridin-2-yl)-2-methoxyacetamide (1 μg/mL) which is defined as 100%.

The test system of assay [4] is PBMCs. The assay is described as follows: IL-2 and IFN gamma release in CD3/CD28 stimulated PBMC cells, assay (c). The format is cell-based. The conditions noted are these: Homo sapiens. How it is done:
PBMCs from healthy subjects are separated from whole blood using a density gradient (Lymphoprep, Axis-Shield Healthcare). Cells are added to a 96 well plate pre-coated with a mixture of CD3/CD28 monoclonal antibodies (0.3 μg/mL eBioscience and 3 μg/mL BD Pharmingen respectively). Compound at the desired concentration is then added to the wells and the plate left for 3 days under normal tissue culture conditions. Supernatants are harvested and IL-2 and IFN gamma release determined by Sandwich ELISA (Duo-set, R&D System). The IC50 is determined from the dose response curve.

The target of assay [5] is p38 MAPKα (Homo sapiens (Human), UniProt Q16539). Put plainly: p38 MAPKα enzyme inhibition (FRET, Z-LYTE), Method 2. Format: biochemical.
Sequence of p38 MAPKα (Q16539 whole entry): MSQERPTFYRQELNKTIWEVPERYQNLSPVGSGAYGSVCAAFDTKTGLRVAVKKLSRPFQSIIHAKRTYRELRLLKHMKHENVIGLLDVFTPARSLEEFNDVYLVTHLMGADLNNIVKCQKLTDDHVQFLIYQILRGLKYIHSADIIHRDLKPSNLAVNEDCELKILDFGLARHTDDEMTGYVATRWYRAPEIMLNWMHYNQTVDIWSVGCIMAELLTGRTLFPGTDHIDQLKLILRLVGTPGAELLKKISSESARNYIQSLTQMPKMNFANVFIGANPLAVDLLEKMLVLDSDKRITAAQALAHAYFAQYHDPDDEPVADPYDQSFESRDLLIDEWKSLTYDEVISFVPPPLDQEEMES
In assay [6] the target is Syk (Homo sapiens (Human), UniProt P43405). The assay is described as follows: Syk enzyme inhibition (FRET, Z-LYTE). The format is biochemical. How it is done:
as §1
The inhibitory activities of compounds of the invention against c-Src and Syk enzymes (Invitrogen), are evaluated in a similar fashion to that described hereinabove. The relevant enzyme (3000 ng/mL or 2000 ng/mL respectively, 2.5 μL) is incubated with the test compound (either 4 μg/mL, 0.4 μg/mL, 0.04 μg/mL, or 0.004 μg/mL, 2.5 μL each) for 2 hr at RT. The FRET peptides (8 μM, 2.5 μL), and appropriate ATP solutions (2.5 μL, 800 μM for c-Src, and 60 μM ATP for Syk) are then added to the enzymes/compound mixtures and incubated for 1 hr. Development reagent (protease, 5 μL) is added for 1 hr prior to detection in a fluorescence microplate reader (Varioskan® Flash, ThermoFisher Scientific).
as §2

Assay [7] has as its target c-Src (Homo sapiens (Human), UniProt P12931). Put plainly: c-Src enzyme inhibition (FRET, Z-LYTE). The format is biochemical. The method, then:
as §1
The relevant enzyme (3000 ng/mL or 2000 ng/mL respectively, 2.5 μL) is incubated with the test compound (either 4 μg/mL, 0.4 μg/mL, 0.04 μg/mL, or 0.004 μg/mL, 2.5 μL each) for 2 hr at RT. The FRET peptides (8 μM, 2.5 μL), and appropriate ATP solutions (2.5 μL, 800 μM for c-Src, and 60 μM ATP for Syk) are then added to the enzymes/compound mixtures and incubated for 1 hr. Development reagent (protease, 5 μL) is added for 1 hr prior to detection in a fluorescence microplate reader (Varioskan® Flash, ThermoFisher Scientific).
as §2

Where [8] appears, read: 1 μg/mL test compound, normalised to reference N-(4-(4-(3-(3-tert-butyl-1-p-tolyl-1H-pyrazol-5-yl)ureido)naphthalen-1-yloxy)pyridin-2-yl)-2-methoxyacetamide.
Where [9] appears, read: 5 μg/mL test compound, normalised to the same reference compound.
[10] abbreviates: 10 μg/mL test compound, normalised to the same reference compound.
Setting [11] is: IFNγ, read-out: IC50 Values for Inhibition of Cytokine Release, PBMCs IFNγ.

Molecules are shown by their SMILES. pIC50: −log10 of the molar value.

Sequence of GSK3α (P49840 whole entry): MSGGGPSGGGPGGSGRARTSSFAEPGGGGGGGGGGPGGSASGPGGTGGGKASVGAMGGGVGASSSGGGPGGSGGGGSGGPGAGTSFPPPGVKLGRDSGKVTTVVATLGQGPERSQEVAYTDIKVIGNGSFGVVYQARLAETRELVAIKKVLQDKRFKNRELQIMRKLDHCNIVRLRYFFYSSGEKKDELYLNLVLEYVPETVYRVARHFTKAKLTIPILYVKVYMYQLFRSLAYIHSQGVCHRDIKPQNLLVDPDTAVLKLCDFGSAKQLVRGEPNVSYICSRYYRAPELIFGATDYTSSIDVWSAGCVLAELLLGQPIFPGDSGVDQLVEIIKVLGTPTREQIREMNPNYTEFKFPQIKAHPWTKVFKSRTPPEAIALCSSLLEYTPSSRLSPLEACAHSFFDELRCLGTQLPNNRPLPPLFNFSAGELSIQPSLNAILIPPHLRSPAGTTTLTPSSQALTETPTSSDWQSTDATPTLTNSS
Sequence of c-Src (P12931 whole entry, looked up): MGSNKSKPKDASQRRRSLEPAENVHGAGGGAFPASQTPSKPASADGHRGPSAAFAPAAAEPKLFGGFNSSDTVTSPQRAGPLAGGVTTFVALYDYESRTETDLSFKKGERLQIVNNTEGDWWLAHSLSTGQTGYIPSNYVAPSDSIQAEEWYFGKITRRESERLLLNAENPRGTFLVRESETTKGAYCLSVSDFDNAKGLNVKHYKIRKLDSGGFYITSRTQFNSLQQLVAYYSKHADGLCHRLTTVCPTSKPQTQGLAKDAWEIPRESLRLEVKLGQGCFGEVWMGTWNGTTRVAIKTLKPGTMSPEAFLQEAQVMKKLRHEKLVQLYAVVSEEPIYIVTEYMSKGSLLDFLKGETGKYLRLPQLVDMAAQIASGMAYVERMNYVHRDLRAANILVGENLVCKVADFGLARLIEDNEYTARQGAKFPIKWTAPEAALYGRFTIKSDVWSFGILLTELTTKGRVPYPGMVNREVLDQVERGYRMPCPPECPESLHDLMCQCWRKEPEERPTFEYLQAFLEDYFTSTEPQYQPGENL

A word on the pIC50: it is the negative decadic logarithm of the IC50, by convention in mol/L. Take `C#Cc1cc(Nc2nccc(Oc3ccc(NC(=O)Nc4cc(C(C)(C)C)nn4C(C)C)c4ccccc34)n2)cc(C(=O)NCCOCCOCCOC)c1` [13(a), 3-((4-((4-(3-(3-(tert-Butyl)-1-isopropyl-1H-pyrazol-5-yl)ureido)naphthalen-1-yl)oxy)pyrimidin-2-yl)amino)-5-ethynyl-N-(2-(2-(2-methoxyethoxy)ethoxy)ethyl)-benzamide]: the pIC50 in assay [1] was 5.07; in assay [2], 8.27.

Consider `C#Cc1cc(Nc2nccc(Oc3ccc(NC(=O)Nc4cc(C(C)(C)C)nn4CCC)c4ccccc34)n2)cc(C(=O)NCCOCCOCCOC)c1` [13(b), 3-((4-((4-(3-(3-(tert-Butyl)-1-propyl-1H-pyrazol-5-yl)ureido)naphthalen-1-yl)oxy)-pyrimidin-2-yl)amino)-5-ethynyl-N-(2-(2-(2-methoxyethoxy)ethoxy)ethyl)benzamide], for which the pIC50 in assay [1] was 4.88; in assay [2], 8.03.

As for `COc1cc(Nc2nccc(Oc3ccc(NC(=O)Nc4cc(C(C)(C)C)nn4C)c4ccccc34)n2)cc(S(=O)(=O)C2CC2)c1` [Example 3, 1-(3-(tert-Butyl)-1-methyl-1H-pyrazol-5-yl)-3-(4-((2-((3-(cyclopropylsulfonyl)-5-methoxy-phenyl)amino)pyrimidin-4-yl)oxy)naphthalen-1-yl)urea], the “% β-catenin induction” value was −1% in assay [3] (setting [8]), 25% in assay [3] (setting [9]) and 27% in assay [3] (setting [10]). Further, the pIC50 was 7.66 in assay [4] (setting [11]), 5.71 in assay [1], 8.14 in assay [2] and 7.44 in assay [5].

As for `C#Cc1cc(Nc2nccc(Oc3ccc(NC(=O)Nc4cc(C(C)(C)C)nn4C)c4ccccc34)n2)cc(C(=O)NCCOCCOC)c1` [Example 4, 3-((4-((4-(3-(3-(tert-Butyl)-1-methyl-1H-pyrazol-5-yl)ureido)naphthalen-1-yl)oxy)pyrimidin-2-yl)amino)-5-ethynyl-N-(2-(2-methoxyethoxy)ethyl)], the pIC50 in assay [1] was 6.00; in assay [2], 8.33.

As to `COCCOCCOCCOc1cc(Nc2cc(Oc3ccc(NC(=O)Nc4cc(C(C)(C)C)nn4C)c4ccccc34)ccn2)cc(OC)c1` [Example 5, 1-(3-(tert-Butyl)-1-methyl-1H-pyrazol-5-yl)-3-(4-((2-((3-methoxy-5-(2-(2-(2-methoxy-ethoxy)ethoxy)ethoxy)phenyl)amino)pyridin-4-yl)oxy)naphthalen-1-yl)], the pIC50 in assay [6] is under 6.00; in assay [4] (setting [11]) it was 7.88; in assay [4] (IL-2, read-out: IC50 Values for Inhibition of Cytokine Release, PBMCs IL-2) it was 7.47; in assay [1], 5.13; in assay [7] it was 8.00; in assay [2], 8.55. This compound also showed a pIC50 in assay [5] of 6.80. Besides, the “% β-catenin induction” value in assay [3] (setting [8]) was −5.5%; in assay [3] (setting [9]), −7%; in assay [3] (setting [10]), −2%.

As for `COCCOCCOCCOCCOCCOCCOCCOc1cc(Nc2nccc(Oc3ccc(NC(=O)Nc4cc(C(C)(C)C)nn4C)c4ccccc34)n2)cc(OC)c1` [Example 6, 1-(4-((2-((3-(2,5,8,11,14,17,20-Heptaoxadocosan-22-yloxy)-5-methoxyphenyl)amino)-pyrimidin-4-yl)oxy)naphthalen-1-yl)-3-(3-(tert-butyl)-1-methyl-1H-pyrazol-5-yl)urea], the pIC50 in assay [1] was 5.91; in assay [2], 7.97.

Consider `C#Cc1cc(Nc2nccc(Oc3ccc(NC(=O)Nc4cc(C(C)(C)C)nn4C(C)(C)C)c4ccccc34)n2)cc(C(=O)NCCOCCOCCOC)c1` [Example 12, 3-((4-((4-(3-(1,3-Di-tert-butyl-1H-pyrazol-5-yl)ureido)naphthalen-1-yl)oxy)pyrimidin-2-yl)amino)-5-ethynyl-N-(2-(2-(2-methoxyethoxy)ethoxy)ethyl)benzamide], for which the pIC50 in assay [1] was 4.88; in assay [2], 6.26.

In assay [5], `C#Cc1cc(Nc2nccc(Oc3ccc(NC(=O)Nc4cc(C(C)(C)C)nn4-c4ccc(C)cc4)c4ccccc34)n2)cc(C(=O)NCCN2CCOCC2)c1` [Reference Compound A, 3-((4-((4-(3-(3-(tert-Butyl)-1-(p-tolyl)-1H-pyrazol-5-yl)ureido)naphthalen-1-yl)oxy)-pyrimidin-2-yl)amino)-5-ethynyl-N-(2-morpholinoethyl)benzamide, reference compound] had a pIC50 of 7.27.

Turning to `COCCOCCOCCOc1cc(Nc2nccc(Oc3ccc(NC(=O)Nc4cc(C(C)(C)C)nn4-c4ccc(C)cc4)c4ccccc34)n2)cc(OC)c1` [Reference Compound B, 1-(3-(tert-Butyl)-1-(p-tolyl)-1H-pyrazol-5-yl)-3-(4-((2-((3-methoxy-5-(2-(2-(2-methoxy-ethoxy)ethoxy)ethoxy)phenyl)amino)pyrimidin-4-yl)oxy)naphthalen-1-yl)urea, reference compound], the pIC50 in assay [5] is 6.86.

These data come from patent US9771353B2, “Kinase inhibitors based upon N-alkyl pyrazoles” (RESPIVERT LIMITED, priority 2013, dated 2017).
